Measured values as given in BindingDB's records for doi:10.1021/acs.jmedchem.0c00656 (2020).

Molecular target: T1, Vitamin D3 receptor A (Danio rerio, UniProt Q9PTN2)
T1 sequence (Q9PTN2 whole entry): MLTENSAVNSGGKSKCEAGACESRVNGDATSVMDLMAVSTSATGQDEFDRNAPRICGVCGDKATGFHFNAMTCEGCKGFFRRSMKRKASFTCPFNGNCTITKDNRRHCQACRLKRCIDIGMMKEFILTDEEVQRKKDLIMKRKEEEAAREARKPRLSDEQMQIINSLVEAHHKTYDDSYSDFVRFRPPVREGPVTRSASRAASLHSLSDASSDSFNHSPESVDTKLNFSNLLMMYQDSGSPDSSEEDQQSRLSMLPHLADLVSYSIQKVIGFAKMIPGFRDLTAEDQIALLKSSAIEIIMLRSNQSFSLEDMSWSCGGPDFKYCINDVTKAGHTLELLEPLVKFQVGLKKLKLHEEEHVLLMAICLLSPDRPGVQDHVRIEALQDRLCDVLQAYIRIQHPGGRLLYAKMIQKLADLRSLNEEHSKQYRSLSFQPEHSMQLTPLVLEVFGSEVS
Test: Binding affinity to zebrafish VDR LBD assessed as Kd for fluorescein-labeled SRC1 NR2 peptide binding by micro-scale thermophoresis method

Kd: > 30 µM
Structure (SMILES): C=C1/C(=C\C=C2/CCC[C@]3(C)[C@@H]([C@H](C)/C=C/[C@@H](O)C4(/C=C/C(=O)OCC)CC4)CC[C@@H]23)C[C@@H](O)C[C@@H]1O
